Experimental data taken from US7138486B2, “Insulinotropic hormone derivatives and uses thereof” (The General Hospital Corporation, priority 1986, dated 2006).
One block for each molecule: values may come before it. Where no end group is shown, it is not given here.

Assays:
[1] = tested on: RIN 1046-38 cells; experiment: Levels of insulin, actin and angiotensinogen mRNAs by Northern blot densitometry; format: cell-based, rat
Experimental: Rat insulinoma cells of cell line RIN-38 were derived from a continuous islet cell line, RIN-r, which was established from a transplantable rat islet cell tumor (Gazdar, A. F., et al., Proc. Natl. Acad. Sci., USA 77:3519–3523 (1980)). The cells were maintained in DMEM (Gibco) at a glucose concentration of 4,500 mg/L and supplemented with 10% heat-inactivated fetal bovine serum (Gibco), 100 U/ml of penicillin and 100 μg/ml of streptomycin. Incubations were carried out at 37° C. in 95% air:5% CO2. Cells grown in the above manner were washed and resuspended in DMEM (Gibco) containing 0.1% bovine serum albumin and 25 mM glucose. […] Incubations were for six hours.
Messenger RNAs specific for insulin, actin, or angiotensinogen were identified by Northern hybridization as follows: cellular RNA was extracted from solid tumors and cells by homogenization in guanidine thiocyanate and sedimentation through a cesium chloride cushion. Poly A^+ RNA was isolated by oligo dT cellulose chromatography (Aviv, H., et al., Proc. Natl. Acad. Sci., USA 69:1408–1412 (1972)). Twenty micrograms of total RNA from each sample were fractionated by size on a 1.4% agarose gel after denaturation in glyoxal, followed by electrotransfer to a nylon membrane (Nytran; Schleicher and Schuell). Blotted membranes were baked for two hours at 80° C. under vacuum, prehybridized in 1M NaCl/1% SDS/10% Dextran sulfate at 50° C. overnight and hybridized at the same temperature for 24 h after addition of the labeled probes (3–5×10^5 cpm/ml); they were then washed at 55° C. twice in 1×SCC (0.15M NaCl/0.015 M Na citrate)/1% SDS), and exposed to X-ray film for varying times at −70° C. with an intensifying screen. The relative amounts of the specific mRNA were determined by microdensitometry.

[2] = tested on: RIN 1046-38 cells; experiment: cAMP formation in insulinoma cell line; format: cell-based, rat; conditions: for Effect on cAMP levels: 0.5 μM; for Effects on the formation of cAMP: at 5 nM and 50 pM; for cAMP formation: Table 8
Experimental: Cells were grown as described in Example 1, in […] culture dishes. Varying amounts of glucagon-like peptides were added to culture wells in triplicate. […] Twenty microliters from each culture well was assayed.
Insulinotropic activity was monitored as described by Mojsov, S., et al., (J. Clin. Invest. 79:616–619 (1987)) and Drucker, D. J., et al., (Proc. Natl Acad. Sci. 84:3434–3438 (1987)), both of which references are incorporated by reference herein. […]

[3] = tested on: rat pancreas; experiment: Pancreatic perfusion assay of insulinotropic activity (effluent insulin); format: in vivo; conditions: for Mean perfusate insulin concentration: 10^−9 M for 5 minutes
Experimental: The in situ isolated perfused rat pancreas preparation was a modification of the method of Penhos, J. C., el al. (Diabetes 18:733–738 (1969)). In accordance with such a method, fasted rats (preferably male Charles River strain albino rats), weighing 350–600 g, are anesthetized with an intraperitoneal injection of Amytal Sodium (Eli Lilly and Co., 160 ng/kg). Renal, adrenal, gastric, and lower colonic blood vessels are ligated. The entire intestine is resected except for about four cm of duodenum and the descending colon and rectum. […] The perfusate is preferably a modified Krebs-Ringer bicarbonate buffer with 4% dextran T70 and 0.2% bovine serum albumin (fraction V), and is preferably bubbled with 95% O2 and 5% CO2. A nonpulsatile flow, four-channel roller-bearing pump (Buchler polystatic, Buchler Instruments Division, Nuclear-Chicago Corp.) is preferably used, and a switch from one perfusate source to another is preferably accomplished by switching a three-way stopcock.
Isolated rat pancreas was prepared according to the method of Weir, G. C., et al., (J. Clin. Invest. 54:1403–1412 (1974)), and Penkos, J. C., et al. (Diabetes 18:733–738 (1969)). The perfusate contained bicarbonate buffer (pH 7.4) and 120 mg/dl glucose, 4% dextran T-70, and 0.2% bovine serum albumin, and was equilibrated with 95% oxygen and 5% carbon dioxide. The first 20 minutes of each perfusion was an equilibrium period. After this initial period, aliquots of perfusate were removed every 2–4 min for additional 20 min, thus allowing the system to equilibrate for a total of 40 min. The perfusion, including any added insulinotropic peptide, was for 6 min and samples were collected at 1-min intervals. When more than one perfusion was to be performed, the peptide perfusions were followed by equilibration periods of 20 min, during which four samples 5 min apart were collected. […] Again, samples 1 min apart were collected. The entire perfusion time was between 70 and 85 min.
In each aliquot of perfusate obtained, insulin was determined by radioimmunoassay. […] At one minute intervals, pancreas effluent insulin levels in picograms/ml were determined by radioimmunoassay (as described above).

[4] = target: receptor involved in the recognition of glucagon; experiment: cell-based or functional assay
[5] = target: cellular receptors; experiment: cell-based or functional assay

Molecule: GLP-1-(1-36)-NH2: GLP-1(1-36 des-gly-arg amide); Peninsula Laboratories (HDEFERHAEGTFTSDVSSYLEGQAAKEFIAWLVKGR-NH2; UniProt P01275 92-127, looked up, fragment)
Actin mRNA level ([1]; Experiment 1, peptide 5 × 10^−7 M, control 0.68 ± 0.03): 0.87 ± 0.19 Arbitrary densitometric units
Insulin mRNA level ([1]; Experiment 1, peptide 5 × 10^−7 M, control 1.28 ± 0.18, mean ± SEM): 2.78 ± 0.51^4 Arbitrary densitometric units
Angiotensinogen mRNA level ([1]; Experiment 1, peptide 5 × 10^−7 M, control 2.67 ± 0.31): 2.56 ± 0.22 Arbitrary densitometric units
Effect on cAMP levels [2]: increased cAMP levels
cAMP ([2]; Exp. 4, 5 × 10^−7 M, control 41.3 ± 7.1): 70.2 ± 2.8 (b) fmol
Effects on the formation of cAMP [2]: negligible

Molecule: des-7 histidine GLP-1(7-37) (AEGTFTSDVSSYLEGQAAKEFIAWLVKGRG) [GLP-1 (8-37)]
cAMP formation ([2]; 10^−5 M): 77 ± 11 f-mole/5 ul of cell extract/15 min exposure to peptide
cAMP formation ([2]; 10^−6 M): 31 ± 3 f-mole/5 ul of cell extract/15 min exposure to peptide
cAMP formation ([2]; 10^−7 M): 24 ± 2 f-mole/5 ul of cell extract/15 min exposure to peptide
cAMP formation ([2]; 10^−8 M, no peptide 27 ± 2, mean ± S.E.M.): 28 ± 0.8 f-mole/5 ul of cell extract/15 min exposure to peptide
Insulinotropic activity compared with glucagon ([2]; cAMP formation): comparable to that of glucagon
Effect on insulin secretion ([3]; perfusate glucose 6.6 mM, 10^−7 M): weak insulinotropic activity
Effect on insulin secretion ([3]; perfusate glucose 6.6 mM, 10^−11, 10^−9, or 10^−8 M): no detectable effect
Effect on insulin secretion ([3]; perfusate glucose 16.7 mM, 10^−9 M): no effect

Molecule: glucagon
Effects on insulin mRNA levels [1]: no effects
Effect on cAMP levels [2]: increased cAMP levels
cAMP ([2]; Exp. 1, 5 × 10^−9 M): 20.1 ± 2.5 (a) fmol
cAMP ([2]; Exp. 1, 5 × 10^−10 M): 16.5 ± 2.0 (NS) fmol
cAMP ([2]; Exp. 1, 5 × 10^−11 M): 13.2 ± 1.0 (NS) fmol
cAMP ([2]; Exp. 1, 5 × 10^−12 M, per 1/50th of cell extract per plate, control 15.4 ± 0.7, mean ± SEM): 18.7 ± 2.2 (NS) fmol
cAMP ([2]; Exp. 2, 5 × 10^−7 M): 93.1 ± 2.9 (c) fmol
cAMP ([2]; Exp. 2, 5 × 10^−8 M, control 43.6 ± 4.1): 44.8 ± 1.6 (NS) fmol
cAMP formation ([2]; 10^−6 M): 92 ± 9 f-mole/5 ul of cell extract/15 min exposure to peptide
Effects on the formation of cAMP [2]: negligible
Mean perfusate insulin concentration ([3]; glucose 6.6 mM, absence of GLP-1 (8-37)): 4.98 ± 0.96 ng/mL
Mean perfusate insulin concentration ([3]; glucose 6.6 mM, presence of 10^−8 M GLP-1 (8-37), N=4): 5.26 ± 0.89 ng/mL
Peak insulin release ([3]; 10^−9 M, glucose 6.6 mM): 4.5 ± 0.5 ng/mL
Insulin release ([3]; 10^−11M): no release
Concentration at which an insulinotropic effect is still mediated (as low as) ([3]; pancreatic B cell secretagogue): 10^−9 M

Molecule: GLP-1(7-35): derivative of GLP-1(1-37), amino acids 7-35 (HAEGTFTSDVSSYLEGQAAKEFIAWLVKG; Glucagon-like peptide 1; UniProt P01275 98-126, looked up, fragment)
Insulinotropic activity ([3]; 10^−11 M, five minute perfusions, FIG. 4): detectable insulinotropic activity

mean perfusate insulin concentration, perfused rat pancreas, glucagon alone at 10^-9 M [4]: 4.98 ng/mL
Molecule: glucagon (from UniProt P01275 53-81) (peptide)

cAMP level in RIN-38 cells, 10 min, peptide at 10^-6 M (no peptide: 91) [5]: 170
cAMP level in RIN-38 cells, 10 min, peptide at 10^-7 M (no peptide: 91) [5]: 120
cAMP level in RIN-38 cells, 10 min, peptide at 10^-8 M (no peptide: 91) [5]: 160
cAMP level in RIN-38 cells, 10 min, peptide at 10^-9 M (no peptide: 91) [5]: 100
cAMP level in RIN-38 cells, 10 min, peptide at 10^-10 M (no peptide: 91) [5]: 90
cAMP level in RIN-38 cells, 10 min, peptide at 10^-11 M (no peptide: 91) [5]: 90
Molecule: HDEFERHAEGTFTSDVSSYLEGQAAKEFIAWLVKGRG [glucagon-like peptide-1 (1-37)]

cAMP level in RIN-38 cells, 10 min, peptide at 10^-6 M (no peptide: 140) [5]: 400
cAMP level in RIN-38 cells, 10 min, peptide at 10^-7 M (no peptide: 140) [5]: 370
cAMP level in RIN-38 cells, 10 min, peptide at 10^-8 M (no peptide: 140) [5]: 494
cAMP level in RIN-38 cells, 10 min, peptide at 10^-9 M (no peptide: 140) [5]: 515
cAMP level in RIN-38 cells, 10 min, peptide at 10^-10 M (no peptide: 140) [5]: 253
cAMP level in RIN-38 cells, 10 min, peptide at 10^-11 M (no peptide: 140) [5]: 533
Molecule: HAEGTFTSDVSSYLEGQAAKEFIAWLVKGRG [glucagon-like peptide-1 (7-37)]
